Assay results from patent publication US12570643B2, “3-aryloxy-3-five-membered heteroaryl propylamine compound, and crystal form and use thereof” (Shanghai Leado Pharmatech Co. Ltd., priority 2019, dated 2026).

Assays:
[1] = test system: postoperative pain model in rat; experiment: Postoperative pain model in rat, mechanical hyperalgesia test; type: in vivo; details: 10 mg/kg intramuscular injection
Experimental: Injection of compound I-1: 36.13 mg of compound I-1 prepared in Example 2 was weighed and added into 3.140 mL of normal saline, and well mixed by vortex;
The solvent of the test compound I-1 was normal saline, the administration dose was 10 mg/kg, and the administration method was intramuscular injection. 36.13 mg of the compound I-1 was weighed and added into 3.140 mL normal saline, and well mixed by vortex. The reference compound used in the experiment was bupivacaine injection, purchased from Shanghai Zhaohui Pharmaceutical Co., Ltd., in a dose of 10 mg/kg via intramuscular injection.
Aseptic operation was performed during surgery, surgical instruments (scissors, forceps, scalpel, surgical cotton, suture thread) were disinfected before the operation. The rats were anesthetized with sodium pentobarbital (50 mg/kg, intraperitoneal injection), and the toes of the rats were squeezed to confirm that the animals were completely anesthetized before the surgery. Ophthalmic ointment was applied to the animal's eyes to prevent the animal's cornea from drying out. Iodophor and 70% ethanol were used to disinfect the skin of the surgery area on the sole of the left hind foot three times, and the surgery was started after the skin was dried. Starting at 0.5 cm from the heel, a 1 cm long incision was made longitudinally toward the toe. After cutting the skin, the flexor digitorum brevis was lifted to make longitudinal blunt injury. After pressing to stop the bleeding, the wound was sutured. The surgical instruments were cleaned and sterilized with hot bead sterilizer. After the surgery, the animals were placed on an electric blanket and injected subcutaneously with 5 mL normal saline to prevent dehydration. When the animal was completely awake (free to move), put the animal back into the cage. […]
The rat was placed alone in a plexiglass box with a grid on the bottom of the box to ensure that the rat's feet can be tested. […] During the test, the animal's rapid foot shrinkage was recorded as a pain response. The animal's foot shrinkage when the test fiber left the animal's skin was also recorded as a pain response. If the animal moved or walked, it would not be recorded as the pain response, the test should be repeated. […] The mechanical hyperalgesia test results are recorded in the table of FIG. 10, in which pain response is indicated with an “x” and no pain response is indicated with an “o.”
Mechanical hyperalgesia was expressed as the paw withdrawal threshold (PWT) in the behavioral test of rats, which was calculated according to the following equation: 50% response threshold (g)=(10(Xf+k))/10,000 • Xf=the final test fiber value used in the test • K=table value (Chaplan et al. 1994, page 62) • □=Average difference 5. […]

[2] = test system: formalin pain model in mice; experiment: Formalin pain model in mice; type: in vivo, C57BL/6 mice; details: Mus musculus, ip; intraperitoneal, phase II (10-60 min), dose that halves licking time vs blank control; read-out: analgesic potency ED50 in phase II pain
Text: 150 C57BL/6 mice (male, 9 weeks) were randomly divided into 15 groups with 10 mice for each group, and were used for the analgesic activity test of 3 compounds in the formalin pain model in mice: the compound I-1 group (compound I-1 prepared in Example 2, its hydrochloride was used in the experiment), the S-duloxetine group (its hydrochloride was used in the experiment) and the compound C1 group (compound C1 prepared in Comparative Example 1, its hydrochloride was used in the experiment), respectively. Before the start of the experiment, the mice were allowed to adapt to the experimental environment for 72 hours, during which there was no need to fast for food or water. The tested drugs were administrated by intraperitoneal injection, and the doses were as follows: • The compound I-1 group: blank Vehicle (blank normal saline control), 0.1 mg/kg, 0.5 mg/kg, 1 mg/kg, 5 mg/kg and 10 mg/kg; • The S-duloxetine group: blank Vehicle (blank normal saline control), 1 mg/kg, 5 mg/kg, 10 mg/kg and 20 mg/kg; • The Compound C1 group: blank Vehicle (blank normal saline control), 0.1 mg/kg, 0.5 mg/kg, 1 mg/kg, 5 mg/kg and 10 mg/kg.
After the administration, the mice were placed in a transparent, ventilated plexiglass cylinder, and 1 hour later, 20 μl of 4% formalin solution was injected into the left hind foot plantar of each group of mice with a micro-injector, and foot pain response in mice were recorded in real time with a miniature camera. The length of time of licking the left foot was used as an indicator of pain response, the licking time were observed and recorded during two periods of 0-10 min (phase I) and 10-60 min (phase II) respectively, for statistical analysis, and the half effective dose (ED50) of the 3 compounds were calculated: ED50 refers to the drug dose that reduces the licking time by half compared with the blank control group. The smaller the ED50 value is, the lower the effective analgesic dose of the compound is and the better its analgesic effect is.

SNL model in rat = experiment: SNL model in rat, mechanical hyperalgesia test; type: in vivo, SD rats; details: 100 mg/kg intragastric, 1 hour after administration; control group 3.967 ± 0.775
Experimental: SD rats were taken for surgery, male, SPF grade, mass 150 g-180 g. The surgical procedure was performed aseptically. The animals were anesthetized with sodium pentobarbital (50 mg/kg, intraperitoneal injection). The surgical area of the waist of animals was shaved, and the skin was disinfected three times with iodophor and 70% ethanol. Start the operation after the skin was dry. A longitudinal incision was made in the posterior part of the sacral bone of the animal's waist with a scalpel to expose the left paravertebral muscles, and the muscle tissue was separated with a distractor to expose the vertebra. The left spinal nerves L5 and L6 were separated, ligated with 6-0 silk thread, and the wounds were sutured. After the surgery, the animals were placed on an electric blanket and injected subcutaneously with 5 mL normal saline to prevent dehydration. When the animal was completely awake (free to move), put the animal back into the cage.
After the surgery, the animals were adapted in the experimental environment for 15 minutes/day for 3 days.
After administration, mechanical hyperalgesia test was performed. The rats were placed individually in a plexiglas box with a grid at the bottom of the box to ensure that the feet of the rats can be tested. Rats would adapt for 15 minutes before the test. […] The rapid paw withdrawal of the animal during the test was recorded as a pain response. The paw withdrawal of the animal when the test fiber left the animal's skin was also recorded as a pain response. If the animal moved or walked, it will not be recorded as a pain response, the test should be repeated. […]
Mechanical hyperalgesia was expressed as the paw withdrawal threshold (PWT) in the behavioral test of rats, which was calculated according to the following equation: 50% response threshold (g)=(10(^Xf+kδ))/10,000 • Xf=the final test fiber value used in the test • K=table value • δ=Average difference
Data were collected using Excel software and analyzed using Prism 6.01 (Graph pad software, Inc.) software.

[3] = test system: hot plate induced pain model in rat; experiment: Hot plate induced pain model in rat; type: in vivo, Sprague-Dawley rats; details: 100 mg/kg intraperitoneal
Experimental: Male, mature and unmated healthy Sprague-Dawley rats were selected, and the temperature of the cold/hot plate (product model: PE34, US IITC) was adjusted to a constant temperature of 53±0.1° C., and rats with painful response such as foot licking, foot shaking or slight jumping within 5-10 s were screened (abandoned those who evaded and jumped). […] The tested compound was freshly formulated on the day of administration. A 0.9% NaCl normal saline solution was prepared as a vehicle, an appropriate amount of the test compound was added to the required volume of normal saline, and the mixture was fully suspended to prepare the drug at a concentration of 1 mg/ml. […] The latency of thermal pain was measured at 0.5 h, 1 h and 2 h after drug administration. To avoid scalding the animals on the hot plate, the maximum latency was set to 30 s. The analgesic effect of each compound was evaluated using the maximum possible effect (MPE), i.e. MPE %=[(Post drug latency-baseline latency)/(30−baseline latency)]×100. Statistics of MPE % at different time points.

TRPA1 = molecular target: T1, TRPA1 (Mus musculus, UniProt Q8BLA8); experiment: TRPA1 inhibitory activity, IonWorks Barracuda (IWB) automatic patch clamp detection; type: cell-based; details: HEK293 cells stably expressing TRPA1, AITC-induced current; read-out: IC50(μM) against TRPA1 in automatic patch clamp detection
T1 construct: expressed in transfected cells; host or cells: HEK293 cells stably expressing TRPA1
Experimental: In this example, the compounds prepared in some examples of the present invention (shown in Table 1) were tested for their inhibitory activity on the transient receptor potential channel protein TRPA1. Wherein, compound of formula A (WO2010075353) was used as positive control: […]
Test method by using IonWorks Barracuda (IWB) automatic patch clamp detection: HEK293 cells stably expressing TRPA1 were placed in a 37° C., 5% CO2 incubator and incubated with DMEM medium containing 15 μg/mL Blasticidin S HCl, 200 μg/mL Hygromycin B and 10% FBS serum in a T175 culture flask. When the cell density grew to […], the culture medium was removed, the cells were washed with calcium and magnesium free phosphate buffered saline (PBS), and 3 mL of Trypsin was added and digested for 2 minutes, and 7 mL of culture medium was added to terminate the digestion. […]
Data recording and current amplitude measurement and export were completed by IWB Software (version 2.5.3, Molecular Devices Corporation, Union City, CA). The statistics of the well with a sealing impedance lower than 20 M Ω were not recorded. The original current data was corrected by software, the TRPA1 current amplitude was measured in +100 mV. […] The dose-effect curve and IC50 of compounds were fitted and calculated by GraphPad Prism 5.02 (GraphPad Software, San Diego, CA).

[4] = test system: acetic acid writhing pain model in mice; experiment: Acetic acid writhing pain model in mice; type: in vivo, ICR mice; details: 10 mg/kg intragastric, acetic acid 1 hour after administration; normal saline group 49 times
Experimental: ICR mice, male, 22-25 g, were fasted for food 2 h before administration, but can have water. All ICR mice were weighed and randomly grouped with the number of animals>10 per group. […] The mice were administered via intragastric administration according to the weight of mice. 1.5% acetic acid solution (0.1 ml/10 g) was intraperitoneally injected at 1 hour after administration, and the number of times of visceral pain in each group within 30 minutes was observed, the mice were counted once when the abdomen was concave, the trunk and hind legs were extended and the hips were elevated, and the number of times of these phenomena occurred within 30 min was finally counted.

T1 sequence (Q8BLA8 whole entry): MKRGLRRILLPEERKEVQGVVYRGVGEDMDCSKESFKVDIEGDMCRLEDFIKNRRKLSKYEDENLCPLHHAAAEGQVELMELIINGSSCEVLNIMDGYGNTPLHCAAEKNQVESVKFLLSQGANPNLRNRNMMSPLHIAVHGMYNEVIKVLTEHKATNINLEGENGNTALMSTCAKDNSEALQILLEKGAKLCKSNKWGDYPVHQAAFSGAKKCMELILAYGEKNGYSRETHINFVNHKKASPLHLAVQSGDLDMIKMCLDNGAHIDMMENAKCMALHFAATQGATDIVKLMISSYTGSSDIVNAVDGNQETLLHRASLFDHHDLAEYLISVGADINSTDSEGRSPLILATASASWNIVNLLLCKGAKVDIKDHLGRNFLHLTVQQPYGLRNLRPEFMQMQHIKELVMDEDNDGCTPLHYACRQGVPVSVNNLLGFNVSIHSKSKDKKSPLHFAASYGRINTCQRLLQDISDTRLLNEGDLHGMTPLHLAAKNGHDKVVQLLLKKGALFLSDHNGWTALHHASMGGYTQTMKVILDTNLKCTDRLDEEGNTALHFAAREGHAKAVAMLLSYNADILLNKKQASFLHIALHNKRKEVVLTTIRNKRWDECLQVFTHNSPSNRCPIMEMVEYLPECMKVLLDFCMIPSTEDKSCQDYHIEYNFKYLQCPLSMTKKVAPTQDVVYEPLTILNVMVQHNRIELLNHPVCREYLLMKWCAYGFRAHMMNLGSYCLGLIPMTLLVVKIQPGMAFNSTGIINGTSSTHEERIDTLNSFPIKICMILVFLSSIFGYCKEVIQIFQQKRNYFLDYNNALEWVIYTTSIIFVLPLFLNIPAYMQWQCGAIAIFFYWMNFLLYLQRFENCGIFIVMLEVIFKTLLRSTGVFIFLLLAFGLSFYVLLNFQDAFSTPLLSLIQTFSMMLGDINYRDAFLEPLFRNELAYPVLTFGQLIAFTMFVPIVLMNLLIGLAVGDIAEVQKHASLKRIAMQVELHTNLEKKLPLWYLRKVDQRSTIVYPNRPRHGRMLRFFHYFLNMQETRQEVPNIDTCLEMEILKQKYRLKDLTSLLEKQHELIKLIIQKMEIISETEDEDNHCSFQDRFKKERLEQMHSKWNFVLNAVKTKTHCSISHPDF

CCCCN1CCCCC1C(=O)Nc1c(C)cccc1C (stereo not drawn) [Bupivacaine, bupivacaine]
PWT ([1]; 1 hour after administration, Normal Saline 3.561): 11.587 g
PWT ([1]; 2 hours after administration, Normal Saline 3.382): 4.448 g

CNCC[C@H](Oc1cccc2ccoc12)c1cccs1 [Compound C1, (S)-3-(benzofuran-7-yloxy)-N-methyl-3-(thiophen-2-yl)propan-1-amine]
ED50 [2]: 2.22 mg/kg

NCC1(CC(=O)O)CCCCC1 [Gabapentin, gabapentin]
PWT (SNL model in rat): 6.352 ± 1.897 g
MPE % ([3]; 0.5 h): 6.47 ± 5.49%
MPE % ([3]; 1 h): 14.56 ± 6.18%
MPE % ([3]; 2 h): 22.66 ± 4.93%

CNCC[C@@H](Oc1cccc2ccccc12)c1cccs1 [R-Duloxetine, R-duloxetine]
IC50 (TRPA1): 21 to 50 µM

CN1[C@H]2C[C@H](OC(=O)[C@H](CO)c3ccccc3)C[C@@H]1[C@@H](O)C2 [anisodamine, Anisodamine]
number of visceral pains (writhing reactions) within 30 min [4]: 27 times
